One experiment concerns the target T1, CrGluClα (Caligus rogercresseyi, UniProt A0A1W6LZ70).
T1 construct: full-length ORF (clones CrGluCl-Vald13 and CrGluCl-Vald2)
As to the kind of experiment: two-electrode voltage clamp in Xenopus oocytes expressing the channel; agonist concentration-response. Type of experiment: cell-based. A general note: Two-electrode voltage clamp holds a large cell at a set potential and records current.

The next experiment addresses T2, CrGluClα-T318A (Caligus rogercresseyi, UniProt A0A1W6LZ70, T318A).
T2 construct: full ORF in pCR3.1, homopentamer expressed in Xenopus laevis oocytes, T318A point mutant at extracellular end of M3
The experiment is described as follows: two-electrode voltage clamp in Xenopus oocytes; concentration-response of small evoked currents (Figure 9D). Type of experiment: cell-based.

Results on one molecule are retold here after paper PMC4177951, “Identification and Functional Expression of a Glutamate- and Avermectin-Gated Chloride Channel from Caligus rogercresseyi, a Southern Hemisphere Sea Louse Affecting Farmed Fish” (PLoS Pathogens, 2014).

Each structure is given as a SMILES string.

T2 sequence (A0A1W6LZ70 33-463 T318A): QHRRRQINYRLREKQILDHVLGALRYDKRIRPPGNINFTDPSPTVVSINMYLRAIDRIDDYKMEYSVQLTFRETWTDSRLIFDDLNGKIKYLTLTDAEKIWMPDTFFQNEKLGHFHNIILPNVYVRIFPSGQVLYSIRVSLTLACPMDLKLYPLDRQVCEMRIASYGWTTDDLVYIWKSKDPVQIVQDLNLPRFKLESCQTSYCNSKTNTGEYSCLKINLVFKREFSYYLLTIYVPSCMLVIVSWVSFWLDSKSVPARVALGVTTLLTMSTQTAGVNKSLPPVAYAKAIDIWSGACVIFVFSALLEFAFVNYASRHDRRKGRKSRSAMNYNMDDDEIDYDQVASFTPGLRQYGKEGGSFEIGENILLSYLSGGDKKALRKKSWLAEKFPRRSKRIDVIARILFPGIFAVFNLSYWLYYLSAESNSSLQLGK
T1 sequence (A0A1W6LZ70 entry or part of it): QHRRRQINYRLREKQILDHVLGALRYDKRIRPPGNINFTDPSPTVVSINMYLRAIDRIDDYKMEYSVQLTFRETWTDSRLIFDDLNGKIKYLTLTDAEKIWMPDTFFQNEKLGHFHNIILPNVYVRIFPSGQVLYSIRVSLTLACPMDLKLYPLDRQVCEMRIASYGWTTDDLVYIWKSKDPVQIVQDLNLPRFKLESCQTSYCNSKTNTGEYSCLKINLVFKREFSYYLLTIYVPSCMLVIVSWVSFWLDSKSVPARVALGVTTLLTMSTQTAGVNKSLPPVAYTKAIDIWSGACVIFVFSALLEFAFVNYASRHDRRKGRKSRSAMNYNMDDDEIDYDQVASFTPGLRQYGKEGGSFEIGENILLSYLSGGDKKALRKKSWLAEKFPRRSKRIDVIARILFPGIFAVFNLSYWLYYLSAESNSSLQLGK

Usually EC50 stands for the concentration at which the effect is half-maximal. A higher EC50 goes with a need for much substance. Regarding `N[C@@H](CCC(=O)O)C(=O)O` [L-glutamate], on CrGluClα, the EC50 amounted to 6.89 ± 0.83 µM. In addition, the “concentration-response of evoked currents” value on CrGluClα-T318A is “Maximal response was reached at lower glutamate concentrations in the CrGluClα-T318A mutant channel”.
